Assay results as given in the NIST ThermoML archive (doi:10.1021/acs.jced.6b00026).

Assay: xn = mol fraction of the nth substance listed
Conditions: Fluid (supercritical or subcritical phases), Buoyancy - hydrostatic balance with magnetic suspension - one sinker

CCCCCCCCCCC [undecane] + O=C=O
Conditions	mass density [kg/m3]
313.18 K, 8001 kPa, x2 = 0.6797	776.08
313.18 K, 13999 kPa, x2 = 0.2483	745.92
313.18 K, 16002 kPa, x2 = 0.6797	808.24
313.18 K, 18070 kPa, x2 = 0.8874	825.37
313.18 K, 18977 kPa, x2 = 0.2483	749.97
313.19 K, 16008 kPa, x2 = 0.2483	747.58
313.19 K, 19014 kPa, x2 = 0.6797	817.41
313.2 K, 10002 kPa, x2 = 0.6797	785.54
313.2 K, 12013 kPa, x2 = 0.2483	744.22
313.21 K, 8004 kPa, x2 = 0.2483	740.68
313.21 K, 10007 kPa, x2 = 0.2483	742.45
313.21 K, 12003 kPa, x2 = 0.6797	793.85
313.21 K, 13997 kPa, x2 = 0.6797	801.3
313.21 K, 18002 kPa, x2 = 0.2483	749.16
313.22 K, 19000 kPa, x2 = 0.4641	772.52
313.23 K, 16004 kPa, x2 = 0.4641	769.05
313.23 K, 17996 kPa, x2 = 0.4641	771.37
313.24 K, 10003 kPa, x2 = 0.4641	761.59
313.24 K, 12000 kPa, x2 = 0.4641	764.15
313.24 K, 18003 kPa, x2 = 0.6797	814.33
313.25 K, 7997 kPa, x2 = 0.4641	758.91
313.26 K, 10039 kPa, x2 = 0.8874	773.99
313.26 K, 11990 kPa, x2 = 0.8874	789.91
313.26 K, 14074 kPa, x2 = 0.8874	803.72
313.27 K, 16066 kPa, x2 = 0.8874	815
313.27 K, 19015 kPa, x2 = 0.8874	829.45
313.29 K, 14002 kPa, x2 = 0.4641	766.59
323.11 K, 18008 kPa, x2 = 0.6797	792.77
323.14 K, 11997 kPa, x2 = 0.2483	736.47
323.15 K, 16006 kPa, x2 = 0.4641	758.48
323.17 K, 7997 kPa, x2 = 0.4641	747.66
323.17 K, 14005 kPa, x2 = 0.4641	755.92
323.17 K, 19002 kPa, x2 = 0.6797	795.98
323.19 K, 9992 kPa, x2 = 0.6797	757.97
323.2 K, 9999 kPa, x2 = 0.2483	734.59
323.2 K, 11998 kPa, x2 = 0.6797	768.5
323.2 K, 16011 kPa, x2 = 0.2483	739.99
323.2 K, 18000 kPa, x2 = 0.2483	741.72
323.23 K, 14011 kPa, x2 = 0.2483	738.22
323.23 K, 19001 kPa, x2 = 0.2483	742.54
323.25 K, 16042 kPa, x2 = 0.6797	785.42
323.25 K, 19040 kPa, x2 = 0.8874	798.97
323.26 K, 10008 kPa, x2 = 0.4641	750.42
323.26 K, 12004 kPa, x2 = 0.4641	753.18
323.26 K, 19006 kPa, x2 = 0.4641	762.09
323.27 K, 8000 kPa, x2 = 0.2483	732.65
323.27 K, 18003 kPa, x2 = 0.4641	760.86
323.3 K, 14004 kPa, x2 = 0.6797	777.17
323.31 K, 13971 kPa, x2 = 0.8874	764.29
323.31 K, 18051 kPa, x2 = 0.8874	793.06
323.32 K, 11984 kPa, x2 = 0.8874	745.06
323.32 K, 16015 kPa, x2 = 0.8874	779.89
333.05 K, 15991 kPa, x2 = 0.2483	732.43
333.06 K, 8008 kPa, x2 = 0.2483	724.69
333.06 K, 18013 kPa, x2 = 0.2483	734.27
333.07 K, 18027 kPa, x2 = 0.6797	770.02
333.07 K, 19007 kPa, x2 = 0.2483	735.15
333.09 K, 18042 kPa, x2 = 0.8874	758.98
333.11 K, 12010 kPa, x2 = 0.8874	701.45
333.14 K, 10000 kPa, x2 = 0.2483	726.64
333.14 K, 11987 kPa, x2 = 0.6797	745.9
333.14 K, 18003 kPa, x2 = 0.4641	751.23
333.14 K, 19000 kPa, x2 = 0.6797	773.23
333.16 K, 10004 kPa, x2 = 0.4641	739.87
333.16 K, 11998 kPa, x2 = 0.4641	742.85
333.16 K, 12018 kPa, x2 = 0.2483	728.6
333.16 K, 16006 kPa, x2 = 0.4641	748.54
333.16 K, 19039 kPa, x2 = 0.8874	765.91
333.17 K, 8004 kPa, x2 = 0.4641	736.7
333.17 K, 13998 kPa, x2 = 0.6797	754.83
333.17 K, 14005 kPa, x2 = 0.8874	721.01
333.17 K, 14013 kPa, x2 = 0.2483	730.5
333.19 K, 13997 kPa, x2 = 0.4641	745.71
333.19 K, 16015 kPa, x2 = 0.8874	741.91
333.21 K, 19000 kPa, x2 = 0.4641	752.46
333.23 K, 16000 kPa, x2 = 0.6797	762.53
343.19 K, 12000 kPa, x2 = 0.2483	720.79
343.2 K, 14004 kPa, x2 = 0.2483	722.81
343.2 K, 17005 kPa, x2 = 0.2483	725.76
343.21 K, 11985 kPa, x2 = 0.6797	729.1
343.24 K, 10010 kPa, x2 = 0.2483	718.69
343.25 K, 13002 kPa, x2 = 0.6797	731.82
343.25 K, 16001 kPa, x2 = 0.4641	738.42
343.26 K, 14997 kPa, x2 = 0.2483	723.76
343.26 K, 17011 kPa, x2 = 0.4641	739.9
343.27 K, 13999 kPa, x2 = 0.6797	736.08
343.27 K, 14997 kPa, x2 = 0.4641	736.9
343.27 K, 17005 kPa, x2 = 0.6797	747.33
343.28 K, 14027 kPa, x2 = 0.8874	673.56
343.28 K, 14995 kPa, x2 = 0.6797	739.94
343.28 K, 15997 kPa, x2 = 0.6797	743.79
343.28 K, 18018 kPa, x2 = 0.6797	750.83
343.3 K, 11002 kPa, x2 = 0.2483	719.69
343.3 K, 11003 kPa, x2 = 0.4641	730.57
343.3 K, 12002 kPa, x2 = 0.4641	732.18
343.3 K, 16007 kPa, x2 = 0.2483	724.72
343.3 K, 18033 kPa, x2 = 0.8874	723.56
343.31 K, 8003 kPa, x2 = 0.4641	725.39
343.31 K, 13003 kPa, x2 = 0.4641	733.77
343.32 K, 7999 kPa, x2 = 0.2483	716.46
343.32 K, 17016 kPa, x2 = 0.8874	713.66
343.32 K, 19002 kPa, x2 = 0.4641	742.71
343.34 K, 9998 kPa, x2 = 0.4641	728.83
343.34 K, 16020 kPa, x2 = 0.8874	702.38
343.34 K, 19012 kPa, x2 = 0.2483	727.57
343.35 K, 15016 kPa, x2 = 0.8874	689.29
343.35 K, 17999 kPa, x2 = 0.4641	741.25
343.37 K, 19004 kPa, x2 = 0.8874	731.75
343.37 K, 19021 kPa, x2 = 0.6797	753.8
343.39 K, 13010 kPa, x2 = 0.2483	721.68
343.4 K, 18008 kPa, x2 = 0.2483	726.58
343.41 K, 14002 kPa, x2 = 0.4641	735.22
353.08 K, 11003 kPa, x2 = 0.2483	711.86
353.09 K, 11995 kPa, x2 = 0.4641	721.32
353.12 K, 10003 kPa, x2 = 0.2483	710.71
353.13 K, 13017 kPa, x2 = 0.2483	714.01
353.13 K, 17994 kPa, x2 = 0.4641	731.12
353.14 K, 16002 kPa, x2 = 0.2483	717.14
353.19 K, 14997 kPa, x2 = 0.4641	726.33
353.23 K, 14005 kPa, x2 = 0.4641	724.68
353.31 K, 8017 kPa, x2 = 0.4641	712.03
353.31 K, 16999 kPa, x2 = 0.2483	718.15
353.33 K, 9996 kPa, x2 = 0.4641	717.59
353.33 K, 18011 kPa, x2 = 0.2483	719.15
353.34 K, 14014 kPa, x2 = 0.2483	715.02
353.34 K, 16078 kPa, x2 = 0.6797	710.53
353.35 K, 14995 kPa, x2 = 0.2483	716.05
353.38 K, 19001 kPa, x2 = 0.4641	732.5
353.39 K, 13004 kPa, x2 = 0.4641	722.88
353.4 K, 7998 kPa, x2 = 0.2483	708.29
353.4 K, 16003 kPa, x2 = 0.4641	727.85
353.4 K, 19017 kPa, x2 = 0.2483	720.08
353.41 K, 11004 kPa, x2 = 0.4641	719.34
353.42 K, 17964 kPa, x2 = 0.6797	722.19
353.43 K, 12003 kPa, x2 = 0.2483	712.78
353.43 K, 15953 kPa, x2 = 0.8874	651.24
353.43 K, 18953 kPa, x2 = 0.8874	692.79
353.43 K, 19052 kPa, x2 = 0.8874	691.56
353.44 K, 15006 kPa, x2 = 0.6797	702.5
353.44 K, 16998 kPa, x2 = 0.4641	729.38
353.44 K, 17006 kPa, x2 = 0.6797	716.04
353.44 K, 19016 kPa, x2 = 0.6797	727.96
353.45 K, 17976 kPa, x2 = 0.8874	681.1
353.46 K, 16003 kPa, x2 = 0.8874	649.3
353.46 K, 17018 kPa, x2 = 0.8874	665.72
353.52 K, 17018 kPa, x2 = 0.8874	668.1
353.52 K, 18000 kPa, x2 = 0.8874	678.79
